In ChEMBL document CHEMBL1140230, “Discovery of begacestat, a Notch-1-sparing gamma-secretase inhibitor for the treatment of Alzheimer's disease” (J Med Chem, 2008):
Values after ≈ are worked out from the molar mass of the structure shown. Active and inactive are the calls of the source. No cut-off for these calls is given here.

Experiments:
Mus musculus [1] = test: Reversal of cognitive deficits in contextual fear conditioning in Tg2576 mouse model at 10 mg/kg, po; assay type: functional, organism-based; set-up: dose 10 mg/kg
[2] = Inhibition of gamma-secretase expressed in CHO cells expressing human recombinant APP assessed as amyloid beta40 […]; assay type: cell-based
Mus musculus [3] = test: Reduction of amyloid beta42 level in Tg2576 mouse brain at 10 mg/kg, po after 4 hrs; assay type: functional; set-up: scale not given: the % may be the effect or the level left
Mus musculus [4] = test: Reduction of amyloid beta40 level in Tg2576 mouse brain at 5 mg/kg, po after 4 hrs; assay type: functional; set-up: scale not given: the % may be the effect or the level left
Mus musculus [5] = test: Reduction of amyloid beta42 level in Tg2576 mouse brain at 5 mg/kg, po after 4 hrs; assay type: functional; set-up: scale not given: the % may be the effect or the level left
[6] = Metabolic stability in monkey microsomes assessed as half life; assay type: ADME, Macaca mulatta, Microsome; settings: rhesus monkey
[7] = Selectivity ratio of EC50 for gamma-secretase to EC50 for mouse notch processing
[8] = Metabolic stability in rat microsomes assessed as half life; assay type: ADME, Microsome
[9] = Metabolic stability in Tg2576 mouse microsomes assessed as half life; assay type: ADME, Microsome
in vitro = settings: human, microsomes
Description: Metabolic stability in human microsomes assessed as half life

[10] = Dissociation constant, pKa of the compound; assay type: physicochemical
[11] = Metabolic stability in dog microsomes assessed as half life; assay type: ADME, Canis lupus familiaris, Microsome
[12] = Membrane permeability by PAMPA assay; assay type: ADME; settings: read-out: permeability
Mus musculus [13] = test: Reduction of amyloid beta40 level in Tg2576 mouse brain at 100 mg/kg, po after 4 hrs; assay type: functional; set-up: scale not given: the % may be the effect or the level left
[14] = Apparent permeability from basolateral to apical side in human Caco-2 cells; assay type: ADME, cell-based
[15] = Solubility in Phosal PG50/Tween-80/water; assay type: physicochemical
[16] = Ratio of drug level in brain to plasma in Tg2576 mouse model; assay type: ADME
Mus musculus [17] = test: Reduction of amyloid beta42 level in Tg2576 mouse brain at 100 mg/kg, po after 4 hrs; assay type: functional; set-up: scale not given: the % may be the effect or the level left
[18] = Apparent permeability from apical to basolateral side in human Caco-2 cells; assay type: ADME, cell-based
Mus musculus [19] = organism: Mus musculus; test: Reversal of cognitive deficits in contextual fear conditioning in Tg2576 mouse model; assay type: functional, organism-based

## CC[C@H](C)[C@@H](CO)NS(=O)(=O)c1ccc(Br)cc1
Mus musculus [1]
  Activity: Active
[2]
  IC50: 2210 nM
Mus musculus [3]
  Activity: 25%

## CC[C@H](C)[C@@H](CO)NS(=O)(=O)c1ccc(Cl)s1
[2]
  IC50: 297 nM

## O=S(=O)(N[C@H](CO)C(C(F)(F)F)C(F)(F)F)c1ccc(Cl)s1 [BEGACESTAT]
Mus musculus [4]
  Activity: 37%
[2]
  IC50: 15 nM
Mus musculus [5]
  Activity: 25%
[6]
  half-life: 26 min
[7]
  Ratio EC50: 14
[8]
  half-life: 3 min
[9]
  half-life: 48 min
In vitro
  half-life: > 90 min
[10]
  pKa: 8.3
[11]
  half-life: 31 min

## O=S(=O)(N[C@@H](CO)C(C(F)(F)F)C(F)(F)F)c1ccc(Cl)s1
[2]
  IC50: 10700 nM
[7]
  Ratio EC50: 3.7

## O=S(=O)(N[C@H](CO)C(CC(F)(F)F)CC(F)(F)F)c1ccc(Cl)s1
Mus musculus [4]
  Activity: 27%
[2]
  IC50: 16 nM
Mus musculus [5]
  Activity: 22%
[6]
  half-life: 5 min
[7]
  Ratio EC50: 15
[8]
  half-life: 8 min
[9]
  half-life: 24 min
In vitro
  half-life: 8 min
[10]
  pKa: 8.9
[11]
  half-life: 13 min

## CCC(CC)[C@@H](CO)NS(=O)(=O)c1ccc(Cl)s1 [GSI-136]
[12]
  Papp: 12.5 ×10⁻⁶ cm/s
[2]
  IC50: 25 nM
Mus musculus [13]
  Activity: 25%
[7]
  Ratio EC50: 10
[8]
  half-life: 1 min
[9]
  half-life: 2 min
In vitro
  half-life: 8 min
[14]
  Papp B→A: 43 ×10⁻⁶ cm/s
[15]
  solubility: 6700 µg/mL (≈ 21.5 mM)
[16]
  Kp: 2
[10]
  pKa: 9.6
Mus musculus [17]
  Activity: 25%
[18]
  Papp A→B: 50 ×10⁻⁶ cm/s

## C[C@H](NC(=O)Cc1cc(F)cc(F)c1)C(=O)N[C@H](C(=O)OC(C)(C)C)c1ccccc1
Mus musculus [13]
  Activity: 25%
Mus musculus [19]
  Activity: Active
Mus musculus [17]
  Activity: 25%

## CCC(CC)[C@@H](CO)NS(=O)(=O)c1ccc(Cl)cc1
[2]
  IC50: 294 nM
[7]
  Ratio EC50: 14

## CC[C@H](C)[C@@H](CO)NS(=O)(=O)c1ccc(Cl)cc1
Mus musculus [1]
  Activity: Active
[2]
  IC50: 5450 nM
Mus musculus [3]
  Activity: 25%
